Read-outs that look alike come from different tables or passages of the source.
Columns and labels:
[1] = tested on: Krümmungssyndrom an der Ratte; assay: Analgesic effect: acetic acid-induced writhing syndrome in the rat; assay type: in vivo; conditions: peroral, 1 h before i.p. 3 % acetic acid, dose (by interpolation) reducing number of writhings by 50 %, counted for 20 min
Method: Diese Wirkung wird durch Auswertung des Krümmungssyndroms an der Ratte bestimmt. Das Krümmungssyndrom wird z.B..in weiblichen Ratten von 120-140 g (5 Tiere pro Gruppe) durch eine intraperitoneale Injektion von 0,2 ml einer 3 %igen Essigsäurelösung eine Stunde nach der oralen Verabreichung der geprüften Substanz, hervorgerufen. Die Krümmungs-Bewegungen der Versuchstiere werden während 20 Minuten gezählt.
Die analgetische (antinociceptive) Wirksamkeit einer Verbindung wird durch die Bestimmung der Dosis (durch Interpolieren), welche bei Kontrolltieren (die lediglich den Trägerstoff der Wirksubstanz erhalten haben) die Anzahl der Krümmungen um 50% vermindert, beurteilt. ( ED50).
Literatur: Ziel et al., Pain Res. and Therapy, Vol. 1, ed. Bonica and Albe, Raven Press N.Y., 1976, p. 517.

LDL-Cholesterin = assay: Effect on serum lipids and lipoproteins (LDL cholesterol) in male rats after oral treatment; assay type: in vivo, Ratten; conditions: 50 mg/kg peroral, once daily for 3 days, twice on day 4, serum 16 h after last dose
Text: Die in den Präparaten der Erfindung verwendeten Verbindungen zeigen wertvolle pharmakologische Eigenschaften, z.B. hypolipidämische Wirkungen mit günstiger Beeinflussung des Lipoproteinspektrums, ferner, insbesondere Verbindungen der Formel I, worin R3 für einen heterocyelischen Rest aromatischen Charakters, in erster Linie Pyridyl steht, analgetische Effekte. Diese pharmakologischen Eigenschaften können in Tierversuchen, vorzugsweise an Säugetieren, z.B. Ratten nachgewiesen werden. Hierbei können die Verbindungen enteral oder parenteral, vorzugsweise oral, subkutan oder intraperitoneal in einem Dosisbereich von 1 bis 100 mg/kg/Tag verabreicht werden. Beispielsweise wird die Senkung von "low und very low-density"-Lipoproteinen (LDL und VLDL), sowie die Senkung von Cholesterin und Triglyceriden im Serum wie folgt bestimmt: Männlichen Ratten verabreicht man an 3 Tagen einmal täglich 50 mg Wirkstoff peroral. Am 4. Tag werden die Tiere 2-mal behandelt. Am 5. Tag wird Serum gewonnen und die Lipoproteine werden mit einer Ultrazentrifuge aufgetrennt. Im Serum und in den isolierten Lipoproteinfraktionen werden das Cholesterin und die Triglyceride bestimmt. [K.R. Müller und R.G. Cortesi, Artery 4 (6): 564-577 (1978)].
Männliche Ratten von 180-200 g Körpergewicht erhalten an 3 Tagen einmal täglich peroral die Prüfsubstanz gelöst in Polyäthylenglykol 400. Am 4. Tag werden die Tiere zweimal, morgens und abends, behandelt. Nach der letzten Behandlung wird den Tieren das Futter entzogen. Sechzehn Stunden später werden die Ratten getötet. Aus dem Blut wird Serum gewonnen.
Gleiche Mengen Serum von je 2 Ratten aus derselben Gruppe werden vereinigt, und 0.05 EDTA (Aethylendiamintetraessigsäure) und 0,01 % Thimerosal werden zugesetzt. Die Serumlipoproteine werden durch Ultrazentrifugieren in einem Beckman 40.3 Rotor isoliert. Die VLDL (very low density lipoproteins) werden durch 24-stündiges
Zentrifugieren bei 78 000 g und der Dichte 1.006 gewonnen, die LDL (low density lipoproteins) durch 24-stündiges Zentrifugieren bei 78 000 g und der Dichte 1,040, und die HDL (high density lipoproteins) durch 24-stündiges Zentrifugieren bei 109 000 g und der Dichte 1.21.
In jeder Serumprobe und in jeder Lipoproteinfraktion werden Cholesterin und Triglyceride mit enzymatischen Methoden bestimmt. LDL-Cholesterin wurde als wichtigster Parameter für die Beurteilung der Lipidsenkung betrachtet.
Literatur: K.R. Müller und R.G. Cortesi, Artery 4(6):564-577 (1978).
Die Zahlen der folgenden Resultate geben die Aenderungen vom LDL-Cholesterin in % der Kontrolle an. Dosierung: 50 mg/kg peroral.

[2] = Rattus norvegicus, po, read-out: ED50

Row | Compound | ED50 [1, 2] [mg/kg] | Aenderungen vom LDL-Cholesterin in % der Kontrolle (LDL-Cholesterin) [%] | further results
1 | 6-Methyl-2-(3-pyridyl)-5-butyloxy-5H-[1]benzopyrano[4,3-d]pyrimidin |  |  | ED50 [1]: 60 mg/kg
2 | CCOC1Oc2ccccc2-c2nc(-c3ccccn3)ncc21 (stereo not shown) [1-(2-Pyridyl)-5-äthoxy-5H-[1]benzopyrano[4,3-d]pyrimidin] | 15 |  | 
3 | CCCOC1Oc2ccccc2-c2nc(-c3cccc(OC)c3)ncc21 (stereo not shown) [2-(3-Methoxy-phenyl)-5-propyloxy-5H-[1]benzopyrano[4,3-d]pyrimidin] |  | -43 | 
4 | CCCCOC1Oc2ccccc2-c2nc(-c3cccnc3)ncc21 (stereo not shown) [2-(3-Pyridyl)-5-butyloxy-5H-[1]benzopyrano[4,3-d]pyrimidin] | 5 |  | 
5 | CCOC1Oc2ccccc2-c2nc(-c3cccnc3)ncc21 (stereo not shown) [2-(3-Pyridyl)-5-äthoxy-5H-[1]benzopyrano[4,3-d]pyrimidin] | 1.5 |  | 
6 | CCOC1Oc2ccccc2-c2nc(-c3ccc(O)cc3)ncc21 (stereo not shown) [2-(4-Hydroxy-phenyl)-5-äthyloxy-5H-[1]benzopyrano[4,3-d]pyrimidin] |  | -69 | 
7 | CCCOC1Oc2ccccc2-c2nc(-c3ccc(OC)cc3)ncc21 (stereo not shown) [2-(4-Methoxy-phenyl)-5-propyloxy-5H-[1]benzopyrano[4,3-d]pyrimidin] |  | -38 | 
8 | CCCOC1Oc2ccccc2-c2nc(-c3ccncc3)ncc21 (stereo not shown) [2-(4-Pyridyl)-5-propyloxy-5H-[1]benzopyrano[4,3-d]pyrimidin] | 15 |  | 
9 | CCCCOC1Oc2ccccc2-c2nc(-c3cccc(C)c3)ncc21 (stereo not shown) [2-(5-Methyl-phenyl)-5-butyloxy-5H-[1]benzopyrano[4,3-d]pyrimidin] |  | -29 | 
10 | CCOC1Oc2ccccc2-c2nc(-c3ccccc3)ncc21 (stereo not shown) [2-Phenyl-5-äthoxy-5H-[1]benzopyrano[4,3-d]pyrimidin] |  | -61 | 

Reference: patent EP0051177A2, “Pharmaceutical preparations containing substituted ether compounds, their use, substituted ether compounds and process for their preparation” (CIBA-GEIGY AG, priority 1980, dated 1982)
